According to patent US20250360099A2, “A significantly non-toxic novel Cobalt(III) Schiff base complex induces apoptosis via G2-M cell cycle arrest in human breast cancer cell line MCF-7 and cell cycle arrest of colon cancer cell lines HCT-116 and SW- 480 via G0-G1” (CHITTARANJAN NATIONAL CANCER INSTITUTE, priority 2023, published 2025):
Where two headings read alike, the source gives them in different places.

Tests used:
[1] = system: SW-480; assay: MTT study with OCT3 inhibitor, SW-480; assay type: cell-based, human; conditions: at the respective doses of inhibitor
[2] = system: HCT-116; assay: MTT study with OCT3 inhibitor, HCT-116; assay type: cell-based, human; conditions: at the respective doses of inhibitor
[3] = system: HCT-116 cells; assay: TUNEL staining, fluorescence microscopy; assay type: cell-based, human; conditions: 24 h
[4] = system: SW-480; assay: Cell cycle distribution (PI), SW-480; assay type: cell-based, human; conditions: 24 h
[5] = system: MCF-7 cells; assay: CFSE cell proliferation assay (FACS); assay type: cell-based, human; conditions: IC50 dose, 24 h
Description: (§1) Cell proliferation and cycle study using FACS: To detect cell proliferation, CFSE dye was used. At first, MCF-7 cells were stained with 5 μM of CFSE dye for 15 min at 37° C. followed by the addition of FBS containing RPMI 1640 medium to end the reaction. Then CFSE-stained cells were cultured with both oxaliplatin and complex 1 for 24 h in 35-mm plates. One set of stained untreated cells was seeded only in complete media without any compound. For inhibition of proliferation, cells were grown in a serum-free medium (starvation) for 24 h as a positive control. On the next day, the green fluorescence intensity of CFSE within each cell was measured by flow cytometry, and data were calculated using Flowjo software (version 10). For cell cycle study, MCF-7 cells were seeded at 1×10^5 cells per well in a 6-well plate, treated with an IC50 dose of complex 1 and oxaliplatin for 24 h, then digested by trypsinization and made into cell suspension (10^6 cells were harvested from each group) in 2% FBS containing 1×PBS, followed by fixation in 70% ethanol overnight at 4° C. After that cells were centrifuged at 850×g in a low-temperature centrifuge for 5 min. […] BD FACS flow cytometer was used to assess the difference in cell cycle phase distribution of nuclear DNA, which was then analyzed using Flowjo software (version 10). […]

[6] = system: SW-480; assay: Annexin V-FITC/PI-PE dual staining, SW-480; assay type: cell-based, human; conditions: respective IC50 dose, 24 h
[7] = system: SW-480; assay: Wound healing (scratch) assay, SW-480; assay type: cell-based, human; conditions: IC50 dose, 12-48 h
[8] = system: HCT-116; assay: Cell cycle distribution (PI), HCT-116; assay type: cell-based, human; conditions: 24 h
[9] = system: human breast cancer cell line MCF-7; assay: MTT assay, cytotoxicity on breast cancer cells
Description: Breast cancer cell line and culture condition: Cells were cultured in a humidified air-jacked CO2 incubator (Thermo scientific, Heracellvios 160i). […] Human breast cancer cells lines MCF-7, were purchased from NCCS, Pune. […] The cells were cultured as monolayers in RPMI-1640 supplemented with 10% heat-inactivated fetal bovine serum (FBS), 1% penicillin-streptomycin, and 1% antibiotic-antimycotics and 1% non-essential amino acids at 37° C. in a fully humidified air-jacketed incubator of 5% CO2 and 95% air. All the experiments were performed from exponentially growing passage of 15 or less with 80% cell confluency and then sub-cultured to a fresh media to keep cells healthy and actively growing.
The MTT assay is a quantitative, sensitive, and reliable colorimetric assay that mainly measures cell viability and proliferation. […] The cells viability was estimated spectrophotometrically by measuring absorbance at 570 nm using an ELISA plate reader. To calculate the cell viability percentage, the average absorbance of each treatment group was acquired and normalized based on the untreated control. The half inhibitory concentration (IC50 value) was calculated by putting the experimental data with the dose-response model (Prism 6, Version 6.0b, GraphPad Software).

[10] = system: MCF-7 cells; assay: Cell cycle study by flow cytometry after PI staining; assay type: cell-based, human; conditions: IC50 concentration, 24 h; untreated 8.88%
Description: as §1

[11] = system: Human colon cancer cell line SW-480; assay: XTT assay, cytotoxicity on SW-480; assay type: cell-based; conditions: 24 h
Source text: (§2) Colon cancer cell lines and culture condition: Human colon cancer cell lines HCT-116 and SW-480 were purchased from NCCS, Pune. The carcinoma cell line (HCT-116) is wild-type for TP53 and adenocarcinoma cell line (SW480) is a double-mutant for TP53 gene.

[12] = system: HCT-116; assay: CFSE cell proliferation, HCT-116; assay type: cell-based, human; conditions: respective IC50 dose, 24 h
[13] = system: MCF-7 cells; assay: FACS-based Annexin V-FITC/PI dual staining assay; assay type: cell-based, human; conditions: IC50 dose, 24 h
Description: FACS-based Annexin V-FITC/PI dual staining assay: MCF-7 cells were seeded in 6-well plate at 1×10^5 cells per well and treated with an IC50 dose of complex 1 and oxaliplatin for 24 h, after which they were harvested by trypsinization and processed into cell suspensions (10^6 cells were taken from each group). Cells were centrifuged at 800 g before being re-suspended in a dye mix that included 250 μL Annexin V-FITC binding buffer, 1 μL PI solution, and 3 μL Annexin V-FITC solution as per assay kit protocol. For 15 minutes, the cell suspension was kept in dark. The BD FACS Verse was used to detect the intensities of red and green fluorescence, and Flowjo software (version 10) was used to assess the apoptotic rates of treated cells. Ten thousand events were collected to determine the population percentage. All experiments were repeated three times, and the results were presented as mean±SD.

[14] = system: SW-480; assay: CFSE cell proliferation, SW-480; assay type: cell-based, human; conditions: respective IC50 dose, 24 h
[15] = system: Human colon cancer cell line HCT-116; assay: XTT assay, cytotoxicity on HCT-116; assay type: cell-based; conditions: 24 h
Source text: as §2

[16] = system: HCT-116; assay: Wound healing (scratch) assay, HCT-116; assay type: cell-based, human; conditions: IC50 dose, 12-48 h
[17] = system: HCT-116; assay: Annexin V-FITC/PI-PE dual staining, HCT-116; assay type: cell-based, human; conditions: respective IC50 dose, 24 h

| Structure (SMILES) | toxicity of the inhibitor itself, SW-480 [1] | toxicity of the inhibitor itself, HCT-116 [2] | TUNEL-positive cells vs untreated control [3] | cell cycle distribution, SW-480 [4] | CFSE staining intensity vs untreated controls [5] | number of apoptotic cells vs untreated, SW-480 [6] | migration of cells vs untreated, SW-480 [7] | cell cycle distribution, HCT-116 [8] | IC50 ([9]; read-out: IC50, cytotoxicity on MCF-7 cells, 24 h, mean±SD) | IC50 ([9]; read-out: IC50, cytotoxicity on MCF-7 cells, 48 h, mean±SD) | population of cells in the G2-M phase [10] | IC50 [11] | cell proliferation, HCT-116 [12] | late apoptotic (Annexin V+/PI+) population ([13]; untreated 2.87%) | early apoptotic population (Annexin V+/PI−) ([13]; untreated 4.96%) | cell proliferation, SW-480 [14] | IC50 [15] | migration of cells vs untreated, HCT-116 [16] | number of apoptotic cells vs untreated, HCT-116 [17] |
| --- | --- | --- | --- | --- | --- | --- | --- | --- | --- | --- | --- | --- | --- | --- | --- | --- | --- | --- | --- |
| CCN1/C(=C/c2ccc3ccccc3[n+]2CC)C=Cc2ccccc21.[I-] [Dycenium-22] | non-toxic | non-toxic |  |  |  |  |  |  |  |  |  |  |  |  |  |  |  |  |  |
| O=C1[O][Pt]2([NH][C@@H]3CCCC[C@H]3[NH]2)[O]C1=O [oxaliplatin, reference compound] |  |  | increased number of TUNEL-positive cells | cell cycle arrest at G0-G1 phase | significantly higher | elevated the number of apoptotic cells | reduced the migration of cells | cell cycle arrest at G0-G1 phase | 31.4 ± 0.69 µM | 15.1 ± 1.81 µM | 21.3% | 7.87 ± 1.54 µM | suppressed the cell proliferation | 23.9% | 9.58% | suppressed the cell proliferation | 16.7 ± 1.78 µM | reduced the migration of cells | elevated the number of apoptotic cells |
